Test results: PMC9188586, “Design, synthesis and evaluation of novel tetrahydropyridothienopyrimidin-ureas as cytotoxic and anti-angiogenic agents” (Scientific Reports, 2022)

Experiments:
[1] = system: SW480 (colon cancer); experiment: MTT antiproliferative assay, SW480; format: cell-based; details: Homo sapiens, SW480, 48 h incubation
Experimental: (§1) Two series of new tetrahydropyridothienopyrimidines were evaluated for their cytotoxicity against a panel of cell lines, including MCF-7 (breast cancer), SW480 (colon cancer), PC-3 (prostate cancer), HEPG-2 (liver cancer) and HUVEC (human umbilical vein endothelial cell) using 3-(4,5-dimethyl- thiazol-2-yl)-2,5-diphenyltetrazolium bromide (MTT) assay. Sorafenib was used as a positive control. The cytotoxicity is expressed as the concentration that inhibits 50% of cell viability (IC50). […] The preliminary SAR is evaluated on the basis of cytotoxicity results of phenyl derivatives (11a–k) and pyridine derivatives (11l–11y).The mesomeric effect didn’t improve the cytotoxicity of compound 11d in the first series.
(§2) Cytotoxicity of the compounds was measured by detecting the ability of cells in transforming MTT into a purple formazan dye. The different cell lines were provided by the National Cell Bank of Iran (Pastor Institute, Tehran, Iran). The required materials and reagents were purchased from Sigma. After the cell culture in RPMI-1640 medium and DMEM containing 10% FBS (Gibco, Milano, Italy), the suspension of MCF-7 (7000) and other cells (5000) were poured into 96 well plates and incubated in a humidified incubator containing 5% CO2 at 37 °C for 24 h. Subsequently, a solution of the compounds in DMSO was added to these plates and incubated for 48 h. After incubation, the solution of 5% 3-(4,5-Dimethyl-2-thiazolyl)-2,5-diphenyl-2H-tetrazolium bromide (MTT) was added to all the wells and incubation was continued for another 4 h. The record of color intensity of the formazan solution was at 570 nm by Bio-Rad microplate reader (Model 680) which reflects the cell growth condition.

[2] = system: HUVEC cells; experiment: Annexin V/PI flow cytometry apoptosis analysis, HUVEC; format: cell-based, human; details: IC50 concentration
Experimental: (§3) The experiment was conducted by flow cytometry analysis of […] cells with propidium iodide (PI) and annexin V-fluorescein isothiocyanate (annexine V-FITC).
(§4) Then, cells were trypsinized, rinsed with phosphate-bufferede buffered saline (PBS) and then centrifuged at 1200 rpm for 3 min. After this, the binding buffer (500 μL) was added to the resulting cells, followed by addition and mixing with […] and PI (5 μL). After this, the samples were incubated in dark for 10 to 15 min at room temperature, and then the cellular analysis was measured by flow cytometer (FACS Calibur Bectone-Dickinson).

[3] = system: PC-3 (prostate cancer); experiment: MTT antiproliferative assay, PC-3; format: cell-based; details: 48 h incubation
Experimental: as §1, §2

[4] = system: HUVEC (human umbilical vein endothelial cell); experiment: MTT antiproliferative assay, HUVEC; format: cell-based; details: Homo sapiens, HUVEC; MTT assay, 48 h incubation
Experimental: as §1, §2

[5] = system: MRC5 normal cell line; experiment: MTT cytotoxicity against normal cell line MRC5; format: cell-based; details: for IC50: Homo sapiens, MRC5, MTT assay, normal cell line; for SI (Selectivity Index): IC50 value normal cell (MRC5)/IC50 value cancer cell (MCF-7)
Experimental: as §2

[6] = system: MCF-7 cells; experiment: Annexin V/PI flow cytometry apoptosis analysis, MCF-7; format: cell-based; details: MCF-7, IC50 concentration
Experimental: as §3, §4

[7] = system: MCF-7 (breast cancer); experiment: MTT antiproliferative assay, MCF-7; format: cell-based; details: Homo sapiens, MCF7, 48 h incubation
Experimental: as §1, §2

[8] = system: HEPG-2 (liver cancer); experiment: MTT antiproliferative assay, HEPG-2; format: cell-based; details: Homo sapiens, HepG2, 48 h incubation
Experimental: as §1, §2

[9] = system: chick chorioallantoic membrane (CAM); experiment: Chick chorioallantoic membrane (CAM) anti-angiogenic assay; format: in vivo; details: IC50 concentration, compared with Sorafenib as positive control
Experimental: The hydrogen bonding between NH groups of urea and target proteins were known to give rise to better inhibition of an important growth factor receptor (VEGFR-2) involved in the process of angiogenesis. Thus, the chick chorioallantoic membrane (CAM) assay was utilized as an in-vivo technique to evaluate the anti-vascular effects. Therefore, the anti-angiogenic strength of compounds were investigated by a cheap and simple CAM assay (Figs. 4, 5)[32],[33]. The anti-angiogenic strength was measured and compared with DMSO (control) and Sorafenib as a positive control.
All eggs were supplied from (Poultry Breeding Farm, Tehran, Iran). Since the allantois of the chick embryo appears at about 3.5 days of incubation, the corresponding eggs were incubated (37.5 °C, relative humidity: 55–65%). To decrease the risk of infection, the particular regions of the egg, e.g., the front side of the embryo were cleaned and sterilized with 70% EtOH. On the 6th incubation day, a false air sac was created directly over the CAM, permitting its detachment from the shell membrane. The procedure was continued through a square incision over the CAM. The prepared window in a square form (1 × 1 cm), was covered by a flexible film and then transported to the incubator. On the 8th incubation day, the particular paper discs (Whatman) were coated with target agents and placed in the central area of the corresponding window. The surface of CAM was visually evaluated on the 12th incubation day using the stereomicroscope. We decided to use the number and the length of capillary blood vessels as the index of anti-angiogenic activity. Consequently, the prepared images were analyzed by the advantageous software, Image J[22],[23].

[10] = system: caspase-3; experiment: Caspase-3 level by ELISA in MCF-7 cells; format: cell-based, human; details: 24 h, 11n at 2.67 μM, Sorafenib at 7.06 μM
Experimental: The activity of caspase (cysteinyl-aspartate-specific proteases) as intracellular cell death enzymes has been characterized. So, the […] the process[28]–[31].
Caspase-3 activity was measured using a caspase-3 (Active) (human) ELISA kit, MBS450774, according to the manufacturer’s instructions.

[11] = system: MCF-7 cells; experiment: Cell cycle analysis by flow cytometry, MCF-7; format: cell-based; details: MCF-7, IC50 concentration, 48 h
Experimental: We can conclude that compound 11n induces cellular apoptosis in […]. An increase in sub-G1 area is an indicative of apoptosis.
After trypsinization and rinsing with PBS, the cells were centrifuged at 1200 rpm for 5 min and then incubated with PBS and fixed in ice-cooled 70% ethanol. After washing with PBS, the cells were resuspended in RNase A (0.1 mg/mL) and incubated for 5 h. Then, staining with PI ([…]) and incubation for 15 min were performed. By using Novocyte flow cytometer (ACEA Biosciences) the analysis was done and the calculation of cell cycle distributions was done by NovoExpress 1.1.0 software.

With `Cc1cccc(NC(=O)Nc2nnc(Sc3ncnc4sc5c(c34)CCN(Cc3ccccc3)C5)s2)c1` [Compound 11b, 1-(5-((7-benzyl-5,6,7,8-tetrahydropyrido[4',3':4,5]thieno[2,3-d]pyrimidin-4-yl)thio)-1,3,4-thiadiazol-2-yl)-3-(m-tolyl)urea] the IC50 [1] was 67.7 ± 2.53 µM, the “Apoptosis induction (in words)” value [2] was “unable to induce apoptosis” and the IC50 [3] was 46.8 ± 1.49 µM. For the same molecule, the IC50 [4] was 18.89 ± 0.09 µM, the IC50 [5] was 32.1 ± 0.92 µM and the “SI (Selectivity Index)” value [5] was 3.9. For the same molecule, the “Apoptosis induction (in words)” value [6] was “unable to induce apoptosis”, the IC50 [7] was 8.22 ± 0.09 µM and the melting point was 138 to 139 °C. The IC50 [8] was 48.1 ± 0.22 µM.
For `O=C(Nc1ccc(Cl)c(Cl)c1)Nc1nnc(Sc2ncnc3sc4c(c23)CCN(Cc2ccccc2)C4)s1` [Compound 11h, 1-(5-((7-benzyl-5,6,7,8-tetrahydropyrido[4',3':4,5]thieno[2,3-d]pyrimidin-4-yl)thio)-1,3,4-thiadiazol-2-yl)-3-(3,4-dichlorophenyl)urea], the “Inhibitory effect on growing CAM (in words)” value [9] was “slightly weaker inhibitory effects”, the IC50 [1] was 64.2 ± 2.2 µM and the “Apoptosis induction (in words)” value [2] was “unable to induce apoptosis”. For the same molecule, the IC50 [3] was 70.2 ± 1.92 µM, the IC50 [4] was 7.44 ± 0.06 µM and the IC50 [5] was 41.2 ± 0.45 µM. For the same molecule, the “SI (Selectivity Index)” value [5] was 4.8, the “Apoptosis induction (in words)” value [6] was “unable to induce apoptosis” and the IC50 [7] was 8.52 ± 0.02 µM. The melting point was 190 to 192 °C and the IC50 [8] was 53.71 ± 0.5 µM.
For `CNC(=O)c1cc(Oc2ccc(NC(=O)Nc3ccc(Cl)c(C(F)(F)F)c3)cc2)ccn1` [Sorafenib, reference compound], the IC50 [1] was 19.8 ± 0.12 µM, the Casp3 conc. [10] was 4.54 ± 0.25 ng/mL and the IC50 [3] was 5.45 ± 0.11 µM. For the same molecule, the IC50 [4] was 2.81 ± 0.71 µM, the IC50 [7] was 7.06 ± 0.17 µM and the IC50 [8] was 29.6 ± 0.31 µM.
With `Cc1cccc(NC(=O)Nc2nnc(Sc3ncnc4sc5c(c34)CCN(Cc3ccncc3)C5)s2)c1` [Compound 11m, 1-(5-((7-(pyridin-4-ylmethyl)-5,6,7,8-tetrahydropyrido[4',3':4,5]thieno[2,3-d]pyrimidin-4-yl)thio)-1,3,4-thiadiazol-2-yl)-3-(m-tolyl)urea] the “Inhibitory effect on growing CAM (in words)” value [9] was “slightly weaker inhibitory effects”, the IC50 [1] was 61.23 ± 0.44 µM and the “Early apoptotic cells (Q3)” value ([2]; 48 h, one replicate) was 10.1%. The “Late apoptotic cells (Q2)” value ([2]; 48 h, one replicate) was 52.5%, the IC50 [3] was 11.79 ± 0.11 µM and the IC50 [4] was 1.15 ± 0.03 µM. The IC50 [5] was 33.2 ± 0.44 µM, the IC50 [7] was 3.35 ± 0.01 µM and the IC50 [8] was 27.76 ± 0.13 µM. For the same molecule, the “Percentage of cell population in the S phase” value [11] was 32.9%.
